{
  "source": "patent US20140378409A1",
  "about": "“EFFECT POTENTIATOR FOR ANTITUMOR AGENTS” (TAIHO PHARMACEUTICAL CO., LTD., priority 2011, published 2014)",
  "key": {"[1]": {"tested_on": "human gastric cancer cell line NCI-N87", "assay": "Antitumor effect potentiating activity for lapatinib, NCI-N87 subcutaneously transplanted model (nude mice)", "type": "in vivo, human; nude mice", "settings": "14 days", "description": "(§1) As an index of the antitumor effect, the TV on Day 15 was measured for each medicament treated group, and the relative tumor volume (RTV) for Day 1 and T/C (%) were calculated by the following formulas to evaluate the antitumor effect.\n(§2) TV (mm^3)=(Major axis×minor axis^2)/2\n(§3) RTV=(TV on Day 15)/(TV on Day 1)\n(§4) T/C (%)=(Mean RTV value of test solution administered group)/(mean RTV value of control group)×100\nA human gastric cancer cell line (NCI-N87) was transplanted into the right chest of a 5- to 6-week old male BALB/cA Jcl-nu mouse, and the mouse was used in the same manner as described in Test Example 1. The test solution for a lapatinib (manufactured by LC Laboratories, Inc.) single administration group was prepared such that the amount of administration would be 100 mg/kg/day. Furthermore, the test solution of the compound (1) was prepared such that the amount of administration would be 200 mg/kg/day of the compound (1).\n(§5) The compound (1) and lapatinib were orally administered every day for 14 consecutive days from Day 1. In a combined administration group, 200 mg/kg/day of the compound (1) and 100 mg/kg/day of lapatinib were administered, and the effects were evaluated in the same manner as described in Test Example 1."}, "[2]": {"tested_on": "human colorectal cancer cell line HT-29", "assay": "Antitumor effect potentiating activity for irinotecan hydrochloride, HT-29 subcutaneously transplanted model (nude mice)", "type": "in vivo, human; nude mice", "settings": "HT-29, nude mice, Day 15", "description": "as §1, §2, §3, §4\n(§6) Furthermore, as an index of toxicity, the body weight [BW] was measured over time, and the mean body weight change [BWC (%)] up to Day 15 with respect to Day 1 was calculated by the following formula (n: day of body weight measurement carried out at a rate of two times/week, and the final day of measurement corresponds to Day 15, which is the final evaluation day).\n(§7) BWC (%)=[(BW on Day n)−(BW on Day 1)]/(BW on Day 1)×100"}, "[3]": {"tested_on": "human gastric cancer cell line NUGC-4", "assay": "Antitumor effect potentiating activity for paclitaxel, NUGC-4 subcutaneously transplanted model (nude mice)", "type": "in vivo, human; nude mice", "settings": "NUGC-4, nude mice, Day 15", "description": "as §1, §2, §3, §4, §6, §7\nA human gastric cancer cell line (NUGC-4) was transplanted into the right chest of a 5- to 6-week old male BALB/cA Jcl-nu mouse, and the mouse was used in the same manner as described in Test Example 1.\nThe test solution for a paclitaxel (TAXOL injection, manufactured by Bristol Myers K.K.) single administration group was prepared such that the amount of administration of paclitaxel would be 60 mg/kg/day.\nThe test solution of the compound (1) was prepared such that the amount of administration would be 12.5 mg/kg/day of the compound (1). In a combined administration group, 12.5 mg/kg/day of the compound (1) and 60 mg/kg/day of paclitaxel were administered. The compound (1) was orally administered every day for 14 consecutive days from Day 1, paclitaxel was administered on Day 1 through the mouse tail vein, and evaluation was made in the same manner as described in Test Example 1.\nFurthermore, the body weight changes over time, which is an indicator of toxicity, were also evaluated in the same manner as described in Test Example 1."}, "[4]": {"tested_on": "human gastric cancer cell line NUGC-4", "assay": "Antitumor effect potentiating activity for TS-1, NUGC-4 subcutaneously transplanted model (nude rats)", "type": "in vivo, human; nude rats", "settings": "NUGC-4, nude rats, Day 15, 14 days", "description": "as §1, §2, §3, §4\nA human gastric cancer cell line (NUGC-4) was transplanted into the right chest of a 5- to 6-week old male nude rat, and the rat was used in the same manner as described in Test Example 1. The test solution for a TS-1 (TS-1, manufactured by Taiho Pharmaceutical Co., Ltd.) single administration group was prepared such that the amount of administration of tegafur would be 18 mg/kg/day. Furthermore, the test solution of the compound (1) was prepared such that the amount of administration would be 250 mg/kg/day and 50 mg/kg/day.\nas §5, with “TS-1” for “lapatinib”, “250 mg/kg/day and 50” for “200”, “18” for “100”"}, "[5]": {"tested_on": "human lung cancer cell line NCI-H460", "assay": "Antitumor effect potentiating activity for paclitaxel, NCI-H460 subcutaneously transplanted model (nude mice)", "type": "in vivo, human; nude mice", "description": "A human lung cancer cell line (NCI-H460) was transplanted into the right chest of a 5- to 6-week old male BALB/cA Jcl-nu mouse. After the tumor transplantation, the major axis (mm) and the minor axis (mm) of the tumor were measured to calculate the tumor volume (TV), and then mice were allocated to each treatment group such that the average TV's of each group would be uniform. The day on which this grouping (n=5) was performed was designated as Day 1.\nThe test solution for a paclitaxel (TAXOL injection, Bristol Myers K.K.) single administration group was prepared such that the administered dose of paclitaxel would be 60 mg/kg/day. Furthermore, the test solution for a compound (1) single administration group was prepared such that the administered dose would be 200 mg/kg/day. The compound (1) was orally administered every day for 14 consecutive days from Day 1, and paclitaxel was administered on Day 1 through the mouse tail vein. In a combined administration group, 200 mg/kg/day of the compound (1) and 60 mg/kg/day of paclitaxel were administered.\nas §1, §2, §3, §4, §6, §7"}, "[6]": {"tested_on": "human lung cancer cell line NCI-H441", "assay": "Antitumor effect potentiating activity for gemcitabine hydrochloride, NCI-H441 subcutaneously transplanted model (nude mice)", "type": "in vivo, human; nude mice", "description": "as §1, §2, §3, §4\nA human lung cancer cell line (NCI-H441) was transplanted into the right chest of a 5- to 6-week old male BALB/cA Jcl-nu mouse, and the mouse was used in the same manner as described in Test Example 1.\nThe test solution for a gemcitabine hydrochloride (GEMZAR, manufactured by Eli Lilly and Co.) single administration group was prepared such that the administered dose would be 240 mg/kg/day. Furthermore, the test solution of the compound (1) was prepared such that the administered dose would be 200 mg/kg/day.\nas §5, with “was” for “and lapatinib were”, “1, and gemcitabine hydrochloride was administered on Day 1 and Day 8 through the mouse tail vein. Ina” for “1. In a”, “240” for “100”, “gemcitabine hydrochloride” for “lapatinib”"}, "[7]": {"settings": "Day 15, 200 mg/kg/day oral, 14 consecutive days"}, "[8]": {"settings": "Day 15, lapatinib 100 mg/kg/day oral"}, "[9]": {"settings": "Day 15, 240 mg/kg/day, tail vein Day 1 and Day 8"}, "[10]": {"settings": "paclitaxel 60 mg/kg/day, tail vein Day 1"}, "[11]": {"settings": "Day 15, paclitaxel 60 mg/kg/day, tail vein Day 1"}},
  "note": "Counter-ions that a name gives are not always drawn.",
  "data": [
    {"smiles": "CNC(=O)c1cc2c(Oc3ccc(NC(=S)NC(=O)Cc4ccccc4)cc3F)ccnc2cc1OC", "note": "[compound (1), 4-(2-Fluoro-4-(3-(2-phenylacetyl)thioureido)phenoxy)-7-methoxy-N-methylquinoline-6-carboxamide]", "values": [
      {"measurement": "RTV (mean ± standard deviation)", "setting": "[1]; Day 15, 200 mg/kg/day oral", "result": "1.31 ± 0.23"},
      {"measurement": "T/C (%)", "setting": "[1]; Day 15, 200 mg/kg/day oral", "result": 52, "unit": "%"},
      {"measurement": "RTV (mean ± standard deviation)", "setting": "[2]; 50 mg/kg/day oral, 14 days", "result": "1.83 ± 0.29"},
      {"measurement": "T/C (%)", "setting": "[2]; 50 mg/kg/day oral, 14 days", "result": 44, "unit": "%"},
      {"measurement": "RTV (mean ± standard deviation)", "setting": "[3]; 12.5 mg/kg/day oral, 14 days", "result": "6.63 ± 1.91"},
      {"measurement": "T/C (%)", "setting": "[3]; 12.5 mg/kg/day oral, 14 days", "result": 95, "unit": "%"},
      {"measurement": "RTV (mean ± standard deviation)", "setting": "[4]; 50 mg/kg/day oral", "result": "2.36 ± 0.44"},
      {"measurement": "T/C (%)", "setting": "[4]; 50 mg/kg/day oral", "result": 14, "unit": "%"},
      {"measurement": "RTV (mean ± standard deviation)", "setting": "[4]; 250 mg/kg/day oral", "result": "1.60 ± 0.33"},
      {"measurement": "T/C (%)", "setting": "[4]; 250 mg/kg/day oral", "result": 10, "unit": "%"},
      {"measurement": "RTV (mean ± standard deviation)", "setting": "[5]; [7]", "result": "3.02 ± 0.63"},
      {"measurement": "T/C (%)", "setting": "[5]; [7]", "result": 34, "unit": "%"},
      {"measurement": "RTV (mean ± standard deviation)", "setting": "[6]; [7]", "result": "1.26 ± 0.15"},
      {"measurement": "T/C (%)", "setting": "[6]; [7]", "result": 18, "unit": "%"}
    ]},
    {"smiles": "CCc1c2c(nc3ccc(OC(=O)N4CCC(N5CCCCC5)CC4)cc13)-c1cc3c(c(=O)n1C2)COC(=O)[C@]3(O)CC", "note": "[Irinotecan hydrochloride, irinotecan hydrochloride, reference compound]", "values": [
      {"measurement": "RTV (mean ± standard deviation)", "setting": "[2]; 50 mg/kg/day, tail vein Day 1, Day 5, Day 9", "result": "2.47 ± 0.40"}
    ]},
    {"smiles": "CS(=O)(=O)CCNCc1ccc(-c2ccc3ncnc(Nc4ccc(OCc5cccc(F)c5)c(Cl)c4)c3c2)o1", "note": "[Lapatinib, lapatinib, reference compound]", "values": [
      {"measurement": "RTV (mean ± standard deviation)", "setting": "[1]; [8]", "result": "1.56 ± 0.18"},
      {"measurement": "T/C (%)", "setting": "[1]; [8]", "result": 62, "unit": "%"}
    ]},
    {"smiles": "Nc1ccn([C@@H]2O[C@H](CO)[C@@H](O)C2(F)F)c(=O)n1", "note": "[Gemcitabine hydrochloride, gemcitabine hydrochloride, reference compound]", "values": [
      {"measurement": "RTV (mean ± standard deviation)", "setting": "[6]; [9]", "result": "1.10 ± 0.13"},
      {"measurement": "T/C (%)", "setting": "[6]; [9]", "result": 16, "unit": "%"}
    ]},
    {"smiles": "CC(=O)O[C@H]1C(=O)[C@@]2(C)[C@H]([C@H](OC(=O)c3ccccc3)[C@]3(O)C[C@H](OC(=O)[C@H](O)[C@@H](NC(=O)c4ccccc4)c4ccccc4)C(C)=C1C3(C)C)[C@]1(OC(C)=O)CO[C@@H]1C[C@@H]2O", "note": "[Paclitaxel, paclitaxel, reference compound]", "values": [
      {"measurement": "RTV (mean ± standard deviation)", "setting": "[3]; [10]", "result": "5.77 ± 0.96"},
      {"measurement": "T/C (%)", "setting": "[3]; [10]", "result": 83, "unit": "%"},
      {"measurement": "RTV (mean ± standard deviation)", "setting": "[5]; [11]", "result": "3.67 ± 0.42"},
      {"measurement": "T/C (%)", "setting": "[5]; [11]", "result": 41, "unit": "%"}
    ]}
  ]
}
